In patent US9688651B2, “Geranyl geranyl acetone analogs and uses thereof” (NYKEN Holding B.V., priority 2012, dated 2017):
“Also recorded” adds a separate entry of the source.

Tests used:
[1] = tested on: HSP70; test: HSP70 protein boosting in HL-1 cardiomyocytes after mild heat shock (Western blot); assay type: cell-based, mouse; parameters: key to HSP boosting HL-1 cardiomyocytes Protein HSP70: 0 = no induction HSP levels; + = 2-10-fold induction; ++ = 10-30-fold induction; +++ = > 30-fold induction; conditions: mild heat shock 44°C 10 min, then compound 10 μM for 6 hours; Western blot
Procedure: HL-1 atrial myocytes, a cell line derived from adult mouse atria were obtained from Dr. William Claycomb (Louisiana State University, New Orleans, La., USA). The myocytes were maintained in Complete Claycomb Medium (JRH, UK) supplemented with 100 μM norepinephrine stock (consisting of 10 mM norepinephrine (Sigma, The Netherlands) dissolved in 0.3 mM L-ascorbic acid (Sigma)), 4 mM L-glutamine (Gibco, The Netherlands) and 10% FBS (Sigma). The myocytes were cultured in flasks coated with 0.02% gelatin (Sigma), in a 5% CO2 atmosphere at 37° C.
HL-1 cardiomyocytes were subjected to a mild heat shock of 44° C. for 10 minutes. After a recovery of 10 minutes (37 degrees 5% CO2), compounds were added in a final concentration of 10 μM (dissolved in DMSO, final concentration 0.1%). To control myocytes, 0.1% DMSO was added. After six hours the cells were lysed in RIPA buffer and used for Western blotting as described previously.^3, 10
(§1) Western-blot analysis was performed as described previously^3, 10. Equal amount of protein in SDS-PAGE sample buffer was sonicated before separation on 10% PAA-SDS gels. After transfer to nitrocellulose membranes (Stratagene, The Netherlands), membranes were incubated with primary antibodies against HSP25 (Stressgen, The Netherlands, SPA-801, 1:1000), HSP27 (Stressgen, SPA-800, 1:1000), HSP70 (Stressgen, SPA-810, 1:1000), GAPDH (Affinity Reagents, The Netherlands) or PARP (Santa Cruz, The Netherlands, sc-7150, 1:500). Horseradish peroxidase-conjugated anti-mouse or anti-rabbit (Santa-Cruz Biotechnology, The Netherlands) was used as secondary antibody. Signals were detected by the ECL-detection method (Amersham, The Netherlands) and quantified by densitometry using GeneTools software from Syngene (The Netherlands).
Compounds were also screened for HSP70 boosting effects. Hereto, HL-1 cardiomyocytes were first subjected to a mild heat shock which activates the Heat Shock Factor. After the mild heat shock, compound (10 μM) was added to the medium of HL-1 cardiomyocytes for 6 hours, followed by determination of the HSP70 amount.

[2] = tested on: MCF-7 breast cancer cells; test: MCF-7 cell death, ratio death/living cells (trypan blue); assay type: cell-based, human; parameters: key to Cell Death MCF-7 cancer cells Death/living 100 μM: 0 = no dead cells; + = P < 0.05; ++ = P < 0.01; +++ = P < 0.001; conditions: for Cell Death MCF-7 cancer cells Death/living 100 μM: 16-20 hours, trypan blue; for cell death in MCF-7: 10 μM, 16 hours
Procedure: MCF-7 breast cancer cells were cultured in DMEM supplemented with 10% FCS. […] Ratio death and living cells was determined by using trypan blue staining of death cells. The cell pellets were lysed in RIPA buffer and used for Western blot analysis.
Since we observed that some compounds aggravate tachypacing-induced contractile dysfunction, we next investigated if these compounds can induce programmed cell death in a human breast cancer cell-line MCF-7. […] In total 28 compounds were tested for cell death. […] GGA was used as a control as well as non-treated MCF-7 cells. […] The findings indicate that GGA-like compounds which aggravate heart failure can induce programmed cell death in MCF-7 breast cancer cell-line.

[3] = tested on: HSP70; test: HSP70 Western blot in MCF-7 cells; assay type: cell-based, human; parameters: key: + = P < 0.05; ++ = P < 0.01; +++ = P < 0.001; conditions: MCF-7 lysate, 16-20 hours
Procedure: (§2) MCF-7 breast cancer cells were cultured in DMEM supplemented with 10% FCS. Test compounds were added to the medium in a final concentration of […] for 16-20 hours. Ratio death and living cells was determined by using trypan blue staining of death cells. The cell pellets were lysed in RIPA buffer and used for Western blot analysis.
as §1

[4] = tested on: HSP27; test: HSP27 Western blot in MCF-7 cells; assay type: cell-based, human; parameters: key: + = P < 0.05; ++ = P < 0.01; +++ = P < 0.001; conditions: MCF-7 lysate, 16-20 hours
Procedure: as §2, §1

[5] = tested on: PARP; test: PARP cleavage in MCF-7 cells (Western blot); assay type: cell-based, human; parameters: key to Cell Death MCF-7 cancer cells PARP: 0 = no dead cells; + = P < 0.05; ++ = P < 0.01; +++ = P < 0.001; conditions: for Cell Death MCF-7 cancer cells PARP: MCF-7 lysate, Western blot, 16-20 hours; for PARP cleavage, indicative of pro-apoptotic caspase activation: MCF-7, 10 μM, 16 hours
Procedure: as §2, §1
Since we observed that some compounds aggravate tachypacing-induced contractile dysfunction, we next investigated if these compounds can induce programmed cell death in a human breast cancer cell-line MCF-7. Hereto, MCF-7 cells were incubated for 16 hours with 10 μM of a test compound after which the number of death and living cells was determined. In total 28 compounds were tested for cell death. […] GGA was used as a control as well as non-treated MCF-7 cells. […] The findings indicate that GGA-like compounds which aggravate heart failure can induce programmed cell death in MCF-7 breast cancer cell-line.

Row | Structure (SMILES) | HSP boosting HL-1 cardiomyocytes Protein HSP70 [1] | Cell Death MCF-7 cancer cells Death/living 100 μM [2] | Cell Death MCF-7 cancer cells HSP 70 [3] | Cell Death MCF-7 cancer cells HSP 27 [4] | Cell Death MCF-7 cancer cells PARP [5] | cell death in MCF-7 [2] | PARP cleavage, indicative of pro-apoptotic caspase activation [5]
1 | CCOC(=O)C(=Cc1ccccc1)C(=O)CCC=C(C)CCC=C(C)C (mixture of isomers) [Compound 84] | + (+ = 2-10-fold induction) | – | – | – | – | – | –
2 | CCOC(=O)CC(=O)CC/C=C(\C)CCC=C(C)C [Compound 21, (E)-Ethyl 7,11-dimethyl-3-oxododeca-6,10-dienoate] | 0 | – | – | – | – | – | –
3 | CCOC(=O)C(C)C(=O)CC/C=C(\C)CCC=C(C)C (centres unmarked) [Compound 22] | 0 | – | – | – | – | – | –
4 | CCCCCC(C(=O)CC/C=C(\C)CCC=C(C)C)C(=O)OCC (centres unmarked) [Compound 24] | 0 | – | – | – | – | – | –
5 | CC(C)=CCC/C(C)=C/CCc1cc(C)n(C)n1 [Compound 33] | + (+ = 2-10-fold induction) | – | – | – | – | – | –
6 | CC(C)=CCC/C(C)=C/CCc1cc(C)n(CCC#N)n1 [Compound 34] | 0 | – | – | – | – | – | –
7 | CC(C)=CCC/C(C)=C/CCc1cc(C)n(CCO)n1 [Compound 35] | 0 | – | – | – | – | – | –
8 | CC(C)=CCC/C(C)=C/CCc1cc(C)nn1-c1ccc(F)cc1 [Compound 39] | 0 | 0 | 0 | + (+ = P < 0.05) | 0 | – | –
9 | CC(C)=CCC/C(C)=C/CCc1cc(C)nn1-c1ccccc1F [Compound 40] | 0 | – | – | – | – | – | –
10 | CC(C)=CCC/C(C)=C/CCc1cc(C)nn1-c1ccc(C#N)cc1 [Compound 41] | 0 | + (+ = P < 0.05) | 0 | + (+ = P < 0.05) | + (+ = P < 0.05) | significant increase in cell death; also recorded: induce cell death | induced PARP cleavage
11 | CC(=O)NC/C=C(\C)CCC=C(C)C [Compound 43] | 0 | – | – | – | – | – | –
12 | CCNC(=O)NC/C=C(\C)CCC=C(C)C [Compound 44] | 0 | – | – | – | – | – | –
13 | CC(C)=CCC/C(C)=C/CNC(=O)Nc1cccc(F)c1 [Compound 45] | 0 | ++ (++ = P < 0.01) | – | 0 | ++ (++ = P < 0.01) | significant increase in cell death; also recorded: induce cell death | induced PARP cleavage
14 | CC(C)=CCC/C(C)=C/CNS(=O)(=O)c1ccc(C)cc1 [Compound 53] | + (+ = 2-10-fold induction) | – | – | – | – | – | –
15 | CC(C)=CCC/C(C)=C/CNC(=O)CS(C)(=O)=O [Compound 56] | 0 | 0 | 0 | 0 | 0 | – | –
16 | CC(C)=CCC/C(C)=C/CCc1cc(O)nn1C [Compound 64] | 0 | – | – | – | – | – | –
17 | CC(C)=CCC/C(C)=C/CCc1cc(O)nn1Cc1ccccc1 [Compound 65] | 0 | ++ (++ = P < 0.01) | ++ (++ = P < 0.01) | +++ (+++ = P < 0.001) | ++ (++ = P < 0.01) | significant increase in cell death; also recorded: induce cell death | induced PARP cleavage
18 | CC(C)=CCC/C(C)=C/Cc1c(O)c2ccccc2oc1=O [Compound 66] | 0 | 0 | ++ (++ = P < 0.01) | + (+ = P < 0.05) | + (+ = P < 0.05) | – | induced PARP cleavage
19 | CCCC(C(=O)CC/C=C(\C)CCC=C(C)C)C(=O)OCC (centres unmarked) [Compound 70] | 0 | 0 | ++ (++ = P < 0.01) | +++ (+++ = P < 0.001) | 0 | – | –
20 | CCOC(=O)C(CC(=O)O)C(=O)CC/C=C(\C)CCC=C(C)C (centres unmarked) [Compound 78] | 0 | 0 | 0 | ++ (++ = P < 0.01) | + (+ = P < 0.05) | – | induced PARP cleavage
21 | CCOC(=O)C(C/C=C(\C)CCC=C(C)C)C(C)=O (centres unmarked) [Compound 81] | 0 | – | – | – | – | – | –
22 | CCOC(=O)C(C(=O)CC/C=C(\C)CCC=C(C)C)C(C)C(=O)O (centres unmarked) [Compound 82] | 0 | – | – | – | – | – | –
23 | CCOC(=O)CC(C(=O)CC/C=C(\C)CCC=C(C)C)C(=O)OCC (centres unmarked) [Compound 89] | + (+ = 2-10-fold induction) | 0 | 0 | 0 | 0 | – | –
24 | CCCC(=O)NC/C=C(\C)CCC=C(C)C [Compound 91] | + (+ = 2-10-fold induction) | – | – | – | – | – | –
25 | CCOC(=O)C(=O)NC/C=C(\C)CCC=C(C)C [Compound 97] | 0 | – | – | – | – | – | –
26 | CCOC(=O)CC(=O)NC/C=C(\C)CCC=C(C)C [Compound 98] | 0 | 0 | 0 | ++ (++ = P < 0.01) | 0 | – | –
27 | CC(C)=CCC/C(C)=C/CNC(=O)c1ccccc1O [Compound 101] | 0 | ++ (++ = P < 0.01) | – | 0 | ++ (++ = P < 0.01) | significant increase in cell death; also recorded: induce cell death | induced PARP cleavage
28 | CCC(=O)N(C/C=C(\C)CCC=C(C)C)C(=O)CC [Compound 103] | 0 | 0 | 0 | 0 | 0 | – | –
29 | CCCC(=O)N(C/C=C(\C)CCC=C(C)C)C(=O)CCC [Compound 127] | 0 | 0 | 0 | – | 0 | – | –
30 | CCCC(=O)C(CC)C(=O)N(C/C=C(\C)CCC=C(C)C)C(=O)CCC (centres unmarked) [Compound 128] | 0 | – | – | – | – | – | –
